The source made the active and inactive calls.
Key:
H9c2 = test: cells; type: functional, cell-based; details: Rattus norvegicus, H9c2, Myocardium;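 further: confirmatory concentration-response retest of ultra-high-throughput screening hits for modulation of myocardial damage; cell death induced by hydrogen peroxide oxidative stress; compound pretreatment for 60 min then peroxide exposure for 2 h; potency is for protecting the cells against peroxide damage rather than for killing them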
[1] = NIH3T3 cell viability loss – ATP luminescence, mouse fibroblasts, counter-screen, dose response (AID 2010); type: functional, cell-based;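 further: cells exposed to compound for about 90 hours before reading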
[2] = Trypanosoma cruzi growth suppression in host cells – NIH3T3 host cells, beta-gal luminescence, confirmation (AID 2044); type: functional, cell-based;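 further: intracellular parasites grown in NIH/3T3 mouse fibroblasts as host cells; luminescent beta-galactosidase reporter signal from transgenic T. cruzi replicating inside host cells; inhibitors lower the luminescence signal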
[3] = Luminescence Cell-Based Dose Retest to Confirm Inhibitors of Cancer Stem Cells. [Related pubchem assays (depositor defined):AID2717, AID2721]; type: functional; details: Homo sapiens
cells = type: functional
[4] = alpha-synuclein stem-loop luciferase translation blockers – H4 neuroglioma cells, luminescence, confirmation (AID 1988); type: functional, cell-based
[5] = luciferase reporter signal suppression in cells – H4 neuroglioma cells, luminescence, dose response (AID 1990); type: functional, cell-based
[6] = Luminescence Cell-Based Dose Response HTS to Identify Inhibitors of 5'UTR Stem-Loop Driven Prion Protein mRNA Translation in H4 Neuroglioblastoma Cells. [Related pubchem assays: 1827 (Project Summary), 1813 (Primary HTS)]; type: functional
[7] = viability of uninfected HEp-2 cells – cell-based, HTS, cytotoxicity control for RSV inhibitor project, dose response (AID 2410); type: functional; details: human respiratory syncytial virus
Protein RecA = target: T1, Protein RecA (Mycobacterium tuberculosis, UniProt P9WHJ3); test: Fluorescence Cell-Free Homogeneous Dose Retest to Identify Inhibitors of RecA-Intein Splicing Activity. [Related pubchem assays (depositor defined):AID2097, AID2223, AID489010, AID492950]; type: functional
T1 sequence (P9WHJ3 whole entry): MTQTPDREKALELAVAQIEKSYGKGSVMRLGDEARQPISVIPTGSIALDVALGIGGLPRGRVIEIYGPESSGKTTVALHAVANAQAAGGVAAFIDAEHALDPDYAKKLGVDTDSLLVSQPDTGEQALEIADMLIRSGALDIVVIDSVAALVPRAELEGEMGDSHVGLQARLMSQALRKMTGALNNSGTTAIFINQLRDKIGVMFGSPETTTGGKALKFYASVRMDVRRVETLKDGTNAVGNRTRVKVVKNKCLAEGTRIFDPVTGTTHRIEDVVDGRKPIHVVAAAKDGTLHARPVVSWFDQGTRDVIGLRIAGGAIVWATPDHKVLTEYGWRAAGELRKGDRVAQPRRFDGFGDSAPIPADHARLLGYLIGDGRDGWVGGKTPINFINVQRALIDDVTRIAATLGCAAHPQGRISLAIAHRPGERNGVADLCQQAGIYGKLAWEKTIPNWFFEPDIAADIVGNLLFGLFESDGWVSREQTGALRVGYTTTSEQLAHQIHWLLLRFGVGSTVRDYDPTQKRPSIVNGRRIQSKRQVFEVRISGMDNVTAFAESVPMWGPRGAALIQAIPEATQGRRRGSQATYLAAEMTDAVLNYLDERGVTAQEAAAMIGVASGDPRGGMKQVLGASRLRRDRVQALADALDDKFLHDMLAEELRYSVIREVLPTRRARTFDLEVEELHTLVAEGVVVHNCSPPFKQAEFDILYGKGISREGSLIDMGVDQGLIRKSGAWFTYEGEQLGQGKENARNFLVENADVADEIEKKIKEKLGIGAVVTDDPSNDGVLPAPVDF

[8] = target: T2, Replicative DNA helicase DnaB (Mycobacterium tuberculosis, UniProt P9WMR3); test: DnaB intein splicing inhibitors, dose response, biochemical, cell-free fluorescence (AID 449749); type: functional
T2 sequence (P9WMR3 whole entry): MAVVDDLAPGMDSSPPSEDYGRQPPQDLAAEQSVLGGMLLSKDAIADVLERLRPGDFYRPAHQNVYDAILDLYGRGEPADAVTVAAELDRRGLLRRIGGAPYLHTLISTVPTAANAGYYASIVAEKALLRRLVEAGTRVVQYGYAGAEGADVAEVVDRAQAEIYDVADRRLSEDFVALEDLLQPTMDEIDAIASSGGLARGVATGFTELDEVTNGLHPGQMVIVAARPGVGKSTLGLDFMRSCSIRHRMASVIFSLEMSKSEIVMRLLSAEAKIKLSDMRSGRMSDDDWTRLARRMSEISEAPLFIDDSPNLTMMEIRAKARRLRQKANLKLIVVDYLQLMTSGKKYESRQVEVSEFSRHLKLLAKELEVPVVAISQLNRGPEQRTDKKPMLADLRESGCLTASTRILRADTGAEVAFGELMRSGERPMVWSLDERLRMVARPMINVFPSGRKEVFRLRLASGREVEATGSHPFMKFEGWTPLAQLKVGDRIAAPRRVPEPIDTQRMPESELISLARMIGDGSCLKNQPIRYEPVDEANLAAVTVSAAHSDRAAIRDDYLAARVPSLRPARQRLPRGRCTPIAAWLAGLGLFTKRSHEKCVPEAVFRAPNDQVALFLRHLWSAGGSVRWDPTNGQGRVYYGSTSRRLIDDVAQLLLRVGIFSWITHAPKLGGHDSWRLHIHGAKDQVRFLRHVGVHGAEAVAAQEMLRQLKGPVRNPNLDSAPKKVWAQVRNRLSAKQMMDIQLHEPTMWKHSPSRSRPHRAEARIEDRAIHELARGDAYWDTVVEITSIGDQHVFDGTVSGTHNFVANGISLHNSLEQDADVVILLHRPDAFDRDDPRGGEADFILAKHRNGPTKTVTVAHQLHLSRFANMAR

Streptococcus = test: GAS UMAA2166 growth inhibition – luminescence, BacTiterGlo, counter-screen for streptokinase expression inhibitor project, dose response (AID 1915); type: functional, organism-based;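 further: potency for reduction of bacterial viability or growth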
[9] = system: Streptococcus sp. 'group A'; test: Streptococcus pyogenes SK(-)GAS viability under kanamycin – luminescence, BacTiterGlo, confirmation, counter-screen for streptokinase expression inhibitor project, dose response (AID 1900); type: functional, organism-based
Streptokinase A = target: T3, Streptokinase A (Streptococcus pyogenes serotype M1, UniProt P10520); test: viability-normalized secreted streptokinase activity reduction – plasminogen activation absorbance, OD405, dose response (AID 1914); type: functional, Streptococcus pyogenes M1 GAS;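 further: secreted streptokinase activity via plasminogen activation per viability signal from cell pellet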
T3 sequence (P10520 whole entry): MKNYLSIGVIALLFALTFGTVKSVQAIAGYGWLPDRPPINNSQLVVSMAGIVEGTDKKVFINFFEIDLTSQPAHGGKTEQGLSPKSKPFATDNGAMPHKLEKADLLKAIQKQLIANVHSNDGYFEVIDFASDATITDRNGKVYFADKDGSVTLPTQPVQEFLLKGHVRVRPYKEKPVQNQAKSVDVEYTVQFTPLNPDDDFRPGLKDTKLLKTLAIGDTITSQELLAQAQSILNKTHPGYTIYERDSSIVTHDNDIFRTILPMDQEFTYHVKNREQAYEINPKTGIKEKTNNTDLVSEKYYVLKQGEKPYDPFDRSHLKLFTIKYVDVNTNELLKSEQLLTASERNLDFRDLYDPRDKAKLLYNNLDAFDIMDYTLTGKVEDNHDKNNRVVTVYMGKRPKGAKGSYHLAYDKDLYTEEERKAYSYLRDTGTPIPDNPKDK

[10] = fluconazole-exposed Candida albicans growth modulators – fluorescence, retest, confirmation (AID 2467); type: functional, cell-based
[11] = microbe, parasite or virus in culture; type: functional; details: Mycobacterium tuberculosis

For CC(C)NC(=O)COC(=O)Cn1[nH]c(=O)c2ccccc2c1=O, the IC50 (H9c2) was 16.4 µM (active).
For CC1Cc2ccccc2N1C(=O)COC(=O)c1nnc(O)c2ccccc12 (stereo not given), the IC50 (H9c2) was > 79 µM (inactive).
In the case of COc1ccc(C(=O)Nc2nc(-c3ccccn3)cs2)cc1S(=O)(=O)N1CCOCC1, the IC50 (H9c2) is reported as 10.9 µM (active).
In the case of CC1(C)CC2C1CCC1(O)CC2(C)CCC1N(O)c1ccc(C(=O)NCCO)cn1 (stereo not given), the IC50 (H9c2) is reported as > 79 µM (inactive).
In the case of CCOc1cc(CNc2ccc(Br)cc2)cc(Br)c1OCC(=O)NC(C)(C)C, the EC50 [1] is reported as 37.3 µM (active), the EC50 [2] is reported as 1.91 µM (active) and the AC50 [3] is reported as 31.6 µM (active).
With COc1ccc(OC(=O)CCc2c[nH]c3ccccc23)cc1 the IC50 (cells) was 0.48 µM (active).
In the case of C=CCn1c(SCc2c(C)noc2C)nc2sc3c(c2c1=O)CCCCC3, the EC50 [4] is reported as 15.1 µM (active), the EC50 [5] is reported as 14.7 µM (active) and the EC50 [6] is reported as 14.8 µM (active). The AC50 [3] was 0.856 µM (active).
With S=C(Nc1ccccc1Cl)N1CCCC(c2ccccc2)=N1 the AC50 [3] was 4.35 µM (active) and the CC50 [7] was 25.1 µM (active).
In the case of NC(=O)CC(NC(=O)Cc1ccc(Br)cc1)c1ccc(N2CCN(c3ccccc3)CC2)c([N+](=O)[O-])c1 (stereo not given), the AC50 [3] is reported as 14.4 µM (active).
In the case of CC1Cc2ccccc2C(=O)N1 (stereo not given), the IC50 (H9c2) is reported as 12.5 µM (active).
With Fc1ccc(-[n+]2nc(Nc3ccccc3)sc2-c2c3ccccc3cc3ccccc23)cc1 the EC50 (Protein RecA) was 10.6 µM (active), the AC50 [8] was > 380 µM (inactive) and the EC50 (Streptococcus) was 9.23 µM (active). For the same compound, the EC50 [9] was 6.85 µM (active) and the EC50 (Streptokinase A) was 3.22 µM (active).
With O=C(COc1ccccc1)Nc1nnc(-c2ccc3c(c2)CCCC3)o1 the EC50 [10] was 0.499 µM (active) and the IC50 (cells) was 10.3 µM (active).
In the case of Clc1cccc(CNCCNCc2cccc(Cl)c2)c1, the IC50 (cells) is reported as 20.5 µM (active).
For Cc1cc(C)nc(NC(=O)c2ccc(COc3ccccc3Cl)cc2)c1, the AC50 [3] was 0.245 µM (active).
With COc1ccc(-c2c(C#N)c(SCC(=O)c3cc4ccccc4oc3=O)nc(C)c2C(=O)Nc2ccccc2)cc1 the CC50 [11] was 5.32 µM (active) and the AC50 [3] was 0.738 µM (active).
For CCOC(=O)C(C)Oc1ccc(OCc2ccccc2)cc1 (stereo not given), the IC50 (cells) was 6.32 µM (active).
With COc1cccc(C(c2nnnn2Cc2ccccc2)N2CCN(C3CCCC3)CC2)c1OC (stereo not given) the IC50 (H9c2) was > 79 µM (inactive).
For O=C(COc1cccc2c1CCNC2=O)NC1CCCCC1, the IC50 (H9c2) was > 79 µM (inactive).

Reference: ChEMBL document CHEMBL1201862, “PubChem BioAssay data set” (2004)
